EC50 data for six compounds are collected here from US9067977B2, “Peptides derivatized with A-B-C-D- and their therapeutical use” (Novo Nordisk A/S, priority 2007, dated 2015).

Starred links: 1 amine or outer side, 2 acyl side, 3 side chain; linkers in the order of their positions; H or OH if unused. Non-standard residues stand in square brackets, D forms with d. Residues, ends and D or L forms follow the SMILES beside them. Groups on a side chain read outwards from the residue. *: point of attachment. X2 = O=C(O)CCCCCCCCCCCCCCCCCCC(=O)NCC1CCC(C(=O)*)CC1; C20 diacid = O=C(O)CCCCCCCCCCCCCCCCCCC(=O)*; d(βAsp) = O=C(O)[C@@H](CC(=O)[*:2])N[*:1]; γGlu = O=C(O)[C@H](CCC(=O)[*:2])N[*:1]; Desaminohistidyl = O=C(CCc1c[nH]cn1)*; βAsp = O=C(O)[C@H](CC(=O)[*:2])N[*:1]; AEEA = NCCOCCOCC(=O)O; Aib = CC(C)(N)C(=O)O; Inp = O=C(O)C1CCNCC1; Bn = c1ccc(C*)cc1

The first series deals with human serum albumin (HSA) (Homo sapiens, UniProt P02768). Put plainly: Albumin binding affinity, competition scintillation proximity assay.
human serum albumin (HSA), sequence (P02768 25-609): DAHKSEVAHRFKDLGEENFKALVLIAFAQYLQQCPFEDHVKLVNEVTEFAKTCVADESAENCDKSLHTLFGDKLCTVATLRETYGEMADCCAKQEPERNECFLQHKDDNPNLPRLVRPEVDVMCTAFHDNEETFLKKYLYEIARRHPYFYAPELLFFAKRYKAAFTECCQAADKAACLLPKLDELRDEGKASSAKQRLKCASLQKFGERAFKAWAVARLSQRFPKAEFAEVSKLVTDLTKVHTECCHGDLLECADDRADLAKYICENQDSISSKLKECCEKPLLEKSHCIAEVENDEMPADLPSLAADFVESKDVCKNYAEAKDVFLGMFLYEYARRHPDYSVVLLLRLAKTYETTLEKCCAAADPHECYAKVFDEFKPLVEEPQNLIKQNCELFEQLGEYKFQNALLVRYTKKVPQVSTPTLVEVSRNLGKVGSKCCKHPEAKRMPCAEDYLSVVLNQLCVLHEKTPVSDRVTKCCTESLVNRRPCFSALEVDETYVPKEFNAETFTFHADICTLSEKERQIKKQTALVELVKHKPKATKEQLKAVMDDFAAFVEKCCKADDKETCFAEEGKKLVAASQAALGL
Details: not given
Background: In a scintillation proximity assay essentially only radioactivity close to the scintillant gives light.
For orientation: EC50 means the midpoint of the concentration-response curve. Low values mean an effect from little substance, high ones a need for much substance. On to `CC[C@H](C)[C@H](NC(=O)[C@H](Cc1ccccc1)NC(=O)[C@H](CCC(=O)O)NC(=O)[C@H](CCCNC(=N)N)NC(=O)[C@H](C)NC(=O)[C@H](C)NC(=O)[C@H](CCC(N)=O)NC(=O)[C@H](CCC(=O)O)NC(=O)[C@H](CCC(=O)O)NC(=O)[C@H](CC(C)C)NC(=O)[C@H](Cc1ccc(O)cc1)NC(=O)[C@H](CO)NC(=O)[C@H](CO)NC(=O)[C@@H](NC(=O)[C@H](CC(=O)O)NC(=O)[C@H](CO)NC(=O)[C@@H](NC(=O)[C@H](Cc1ccccc1)NC(=O)[C@@H](NC(=O)CNC(=O)[C@H](CCC(=O)O)NC(=O)C(C)(C)NC(=O)[C@@H](N)Cc1c[nH]cn1)[C@@H](C)O)[C@@H](C)O)C(C)C)C(=O)N[C@@H](CCCCNC(=O)COCCOCCNC(=O)COCCOCCNC(=O)C[C@H](NC(=O)C1CCN(C(=O)CCCCCCCCCCCCCCCCCCC(=O)O)CC1)C(=O)O)C(=O)N[C@@H](Cc1c[nH]c2ccccc12)C(=O)N[C@@H](CC(C)C)C(=O)N[C@H](C(=O)N[C@@H](CCCCN)C(=O)NCC(=O)N[C@@H](CCCNC(=N)N)C(=O)NCC(=O)O)C(C)C` [Example 9, N-epsilon30{2-[2-(2-{2-[2-((S)-3-carboxy-3-{[1-(19-carboxynonadecanoyl)piperidine-4-carbonyl]amino}propionylamino)ethoxy]ethoxy}acetylamino)ethoxy]ethoxy}acetyl [Aib8,Glu22,Arg26,Lys30]GLP-1-(7-37)], for which the concentration giving a half-maximal response (EC50) was 0.15 to 0.3 µM. For `CC[C@H](C)[C@H](NC(=O)[C@H](Cc1ccccc1)NC(=O)[C@H](CC(C)C)NC(=O)[C@H](CCCCNC(=O)COCCOCCNC(=O)COCCOCCNC(=O)C[C@@H](NC(=O)C1CCN(C(=O)CCCCCCCCCCCCCCCCCCC(=O)O)CC1)C(=O)O)NC(=O)[C@@H](NC(=O)[C@H](C)NC(=O)[C@H](CCC(=O)O)NC(=O)[C@H](CCC(=O)O)NC(=O)[C@H](CCC(=O)O)NC(=O)[C@H](CC(C)C)NC(=O)[C@H](CCC(N)=O)NC(=O)[C@H](CCCCN)NC(=O)[C@H](CO)NC(=O)[C@H](CC(C)C)NC(=O)[C@H](CC(=O)O)NC(=O)[C@H](CO)NC(=O)[C@@H](NC(=O)[C@H](Cc1ccccc1)NC(=O)[C@@H](NC(=O)CNC(=O)[C@H](CCC(=O)O)NC(=O)C(C)(C)NC(=O)[C@@H](N)Cc1c[nH]cn1)[C@@H](C)O)[C@@H](C)O)C(C)C)C(=O)N[C@@H](CCC(=O)O)C(=O)N[C@@H](Cc1c[nH]c2ccccc12)C(=O)N[C@@H](CC(C)C)C(=O)N[C@@H](CCCCN)C(=O)N[C@@H](CCC(N)=O)C(=O)NCC(=O)NCC(=O)N1CCC[C@H]1C(=O)N[C@@H](CO)C(=O)N[C@@H](CO)C(=O)NCC(=O)N[C@@H](C)C(=O)N1CCC[C@H]1C(=O)N1CCC[C@H]1C(=O)N1CCC[C@H]1C(=O)N[C@@H](COCc1ccccc1)C(N)=O` [Example 2, N-ε^20-{2-[2-(2-{2-[2-((R)-3-carboxy-3-{[1-(19-carboxynonadecanoyl)piperidine-4-carbonyl]amino}propionylamino)ethoxy]ethoxy}acetylamino)ethoxy]ethoxy}acetyl [Aib^2,Leu^14,Lys^20,Gln^28,Ser(O-benzyl)^39] exendin-4 (1-39)amide] (H-H[Aib]EGTFTSDLSKQLEEEAVK([AEEA-AEEA-d(βAsp)-Inp-C20 diacid])LFIEWLKQGGPSSGAPPPS(Bn)-NH2), the EC50 is 0.3 to 0.8 µM. On the same count and under the same terms, under `CC[C@H](C)[C@H](NC(=O)[C@H](Cc1ccccc1)NC(=O)[C@H](CCC(=O)O)NC(=O)[C@H](CCCNC(=N)N)NC(=O)[C@H](C)NC(=O)[C@H](C)NC(=O)[C@H](CCC(N)=O)NC(=O)[C@H](CCC(=O)O)NC(=O)[C@H](CCC(=O)O)NC(=O)[C@H](CC(C)C)NC(=O)[C@H](Cc1ccc(O)cc1)NC(=O)[C@H](CO)NC(=O)[C@H](CO)NC(=O)[C@@H](NC(=O)[C@H](CC(=O)O)NC(=O)[C@H](CO)NC(=O)[C@@H](NC(=O)[C@H](Cc1ccccc1)NC(=O)[C@@H](NC(=O)CNC(=O)[C@H](CCC(=O)O)NC(=O)C(C)(C)NC(=O)[C@@H](N)Cc1c[nH]cn1)[C@@H](C)O)[C@@H](C)O)C(C)C)C(=O)N[C@@H](C)C(=O)N[C@@H](Cc1c[nH]c2ccccc12)C(=O)N[C@@H](CC(C)C)C(=O)N[C@H](C(=O)N[C@@H](CCCNC(=N)N)C(=O)NCC(=O)N[C@@H](CCCNC(=N)N)C(=O)NCC(=O)N[C@@H](CCCCNC(=O)COCCOCCNC(=O)COCCOCCNC(=O)C[C@H](NC(=O)C1CCC(CNC(=O)CCCCCCCCCCCCCCCCCCC(=O)O)CC1)C(=O)O)C(N)=O)C(C)C` (stereo partly drawn) [Example 22, [Aib8,Glu22,Arg26,Arg34]GLP-1-(7-37)Lys[2-(2-[2-(2-[2-(2-((S)-3-[4-([19-Carboxynonadecanoylamino]methyl)cyclohexylcarbonylamino]-3-carboxypropionylamino)ethoxy)ethoxy]acetylamino)ethoxy]ethoxy)acetyl]amide] (H-H[Aib]EGTFTSDVSSYLEEQAAREFIAWLVRGRGK([AEEA-AEEA-βAsp-X2])-NH2; N-terminus assumed) stands 0.15 to 0.3 µM; under `CC[C@H](C)[C@H](NC(=O)[C@H](Cc1ccccc1)NC(=O)[C@H](CCC(=O)O)NC(=O)[C@H](CCCCNC(=O)COCCOCCNC(=O)COCCOCCNC(=O)CC[C@H](NC(=O)C1CCN(C(=O)CCCCCCCCCCCCCCCCCCC(=O)O)CC1)C(=O)O)NC(=O)[C@H](C)NC(=O)[C@H](C)NC(=O)[C@H](CCC(N)=O)NC(=O)[C@H](CCC(=O)O)NC(=O)[C@H](CCC(=O)O)NC(=O)[C@H](CC(C)C)NC(=O)[C@H](Cc1ccc(O)cc1)NC(=O)[C@H](CO)NC(=O)[C@H](CO)NC(=O)[C@@H](NC(=O)[C@H](CC(=O)O)NC(=O)[C@H](CO)NC(=O)[C@@H](NC(=O)[C@H](Cc1ccccc1)NC(=O)[C@@H](NC(=O)CNC(=O)[C@H](CCC(=O)O)NC(=O)C(C)(C)NC(=O)[C@@H](N)Cc1c[nH]cn1)[C@@H](C)O)[C@@H](C)O)C(C)C)C(=O)N[C@@H](C)C(=O)N[C@@H](Cc1c[nH]c2ccccc12)C(=O)N[C@@H](CC(C)C)C(=O)N[C@H](C(=O)N[C@@H](CCC(N)=O)C(=O)NCC(=O)N[C@@H](CCCNC(=N)N)C(=O)NCC(=O)O)C(C)C` [Example 69] (H-H[Aib]EGTFTSDVSSYLEEQAAK([AEEA-AEEA-γGlu-Inp-C20 diacid])EFIAWLVQGRG-OH), 0.1 to 0.15 µM. Turning to `CC[C@H](C)[C@H](NC(=O)[C@H](Cc1ccccc1)NC(=O)[C@H](CCC(=O)O)NC(=O)[C@H](CCCCNC(=O)COCCOCCNC(=O)COCCOCCNC(=O)COCCOCCNC(=O)COCCOCCNC(=O)COCCOCCNC(=O)COCCOCCNC(=O)CC[C@H](NC(=O)CC[C@H](NC(=O)CCCCCCCCCCCNC(=O)CCCS(=O)(=O)NC(=O)CCCCCCCCCCCCCCCc1nnn[nH]1)C(=O)O)C(=O)O)NC(=O)[C@H](C)NC(=O)[C@H](C)NC(=O)[C@H](CCC(N)=O)NC(=O)CNC(=O)[C@H](CCC(=O)O)NC(=O)[C@H](CC(C)C)NC(=O)[C@H](Cc1ccc(O)cc1)NC(=O)[C@H](CO)NC(=O)[C@H](CO)NC(=O)[C@@H](NC(=O)[C@H](CC(=O)O)NC(=O)[C@H](CO)NC(=O)[C@@H](NC(=O)[C@H](Cc1ccccc1)NC(=O)[C@@H](NC(=O)CNC(=O)[C@H](CCC(=O)O)NC(=O)C(C)(C)NC(=O)[C@@H](N)Cc1c[nH]cn1)[C@@H](C)O)[C@@H](C)O)C(C)C)C(=O)N[C@@H](C)C(=O)N[C@@H](Cc1c[nH]c2ccccc12)C(=O)N[C@@H](CC(C)C)C(=O)N[C@H](C(=O)N[C@@H](CCCNC(=N)N)C(=O)NCC(=O)N[C@@H](CCCNC(=N)N)C(N)=O)C(C)C` [Example 45, N-epsilon26-[2-(2-{2-[2-(2-{2-[2-(2-{2-[2-(2-{2-[2-(2-{2-[2-(2-{2-[(S)-4-Carboxy-4-((S)-4-carboxy-4-{12-[4-(16-(1H-tetrazol-5-yl)hexadecanoylsulfamoyl)butyrylamino]dodecanoylamino}butyrylamino)butyrylamino]ethoxy}ethoxy)acetylamino]ethoxy}ethoxy)acetylamino]ethoxy}ethoxy)acetylamino]ethoxy}ethoxy)acetylamino]ethoxy}ethoxy)acetylamino]ethoxy}ethoxy)acetyl][Aib8,Lys26,Arg34]GLP-1-(7-36)amide], the EC50 was in the range of 0.1 to 0.15 µM.

Staying with this series, now noted: human, biotinylated human serum albumin on streptavidin-SPA beads, pH 7.4.
For `CC[C@H](C)[C@H](NC(=O)[C@H](Cc1ccccc1)NC(=O)[C@H](CCC(=O)O)NC(=O)[C@H](CCCNC(=N)N)NC(=O)[C@H](C)NC(=O)[C@H](C)NC(=O)[C@H](CCC(N)=O)NC(=O)[C@H](CCC(=O)O)NC(=O)[C@H](CCC(=O)O)NC(=O)[C@H](CC(C)C)NC(=O)[C@H](Cc1ccc(O)cc1)NC(=O)[C@H](CO)NC(=O)[C@H](CO)NC(=O)[C@@H](NC(=O)[C@H](CC(=O)O)NC(=O)[C@H](CO)NC(=O)[C@@H](NC(=O)[C@H](Cc1ccccc1)NC(=O)[C@@H](NC(=O)CNC(=O)[C@H](CCC(=O)O)NC(=O)[C@H](C)NC(=O)CCc1c[nH]cn1)[C@@H](C)O)[C@@H](C)O)C(C)C)C(=O)N[C@@H](C)C(=O)N[C@@H](Cc1c[nH]c2ccccc12)C(=O)N[C@@H](CC(C)C)C(=O)N[C@H](C(=O)N[C@@H](CCCNC(=N)N)C(=O)NCC(=O)N[C@@H](CCCNC(=N)N)C(=O)NCC(=O)N[C@@H](CCCCNC(=O)COCCOCCNC(=O)CC[C@H](NC(=O)C1CCN(C(=O)CCCCCCCCCCCCCCCCCCC(=O)O)CC1)C(=O)O)C(=O)O)C(C)C` [Example 55, [DesaminoHis7,Glu22,Arg26,34]-GLP-1 (7-37)-Lys-(2-{2-[2-((S)-4-carboxy-4-{[1-(19-carboxynonadecanoyl)piperidine-4-carbonyl]amino}butyrylamino)ethoxy]ethoxy}acetyl) peptide] (Desaminohistidyl-AEGTFTSDVSSYLEEQAAREFIAWLVRGRGK([AEEA-γGlu-Inp-C20 diacid])-OH), the EC50 at 20 h lay within 0.15 to 0.3 µM.
